Test results from US10426850B2, “Collagen mimetic peptides for targeting collagen strands for in vitro and in vivo imaging and therapeutic use” (The Johns Hopkins University, priority 2011, dated 2019).

Legend:
[1] = Circular dichroism spectra and thermal melting of CMPs; type: physicochemical
Procedure: Circular dichroism spectroscopy. CD spectra were collected on JASCO 715 spectrophotometer equipped with a JASCO PTC-348 WI temperature controller and quartz cells (0.1 mm path length). CMP solutions (320 μL, 150 μM in 1×PBS) were stored at 4° C. for at least 24 hours before measurement. For photo-decaging, samples were exposed to 365 nm UV light for at least 30 minutes before the 4° C. incubation. The thermal melting studies were performed by measuring the ellipticity at 225 nm with 60° C./hr heating rate. Raw CD signal was normalized to mean residue ellipticity based on the peptide's length and concentration (Biopolymers 95:94-104 (2011)). Melting temperatures (Tm) were determined by fitting the mean residue ellipticity to a two-state model (Org Lett 8:4735-4738 (2006)). To measure the refolding kinetics, CMP solution was thermally denatured at 75° C. for 10 minutes in a cuvette and rapidly quenched to 25° C. in an ice-water bath, after which the CD signal at 225 nm was observed over time at 25° C. The CD spectra of intact and MMP-1 cleaved type I collagen (FIG. 12) was measured in 90 μg/mL protein solutions in 20 mM acetic acid buffer at 22° C. The 37° C. thermal stability profile (FIG. 2E, inset) was generated by monitoring the ellipticity at 222 nm immediately after transferring the cuvette to a temperature controlled cuvette holder pre-set to 37° C. The Tm values reported in this study are approximately 10° C. higher than the equilibrium Tm due to high heating rate (60° C./hr) (Biopolymers 73:682-688 (2004)).
Synthesis of fluorescently labeled collagen mimetic peptides. Non-caged CMPs were synthesized using Fmoc-mediated solid-phase chemistry by manual or automated synthesis as described previously.2,4 The caged NB(GPO)9 (SEQ ID NO: 12) was prepared by introducing Fmoc(N-o-nitrobenzyl)Gly-OH (synthesized according to Tatsu et al. 2,5) in the middle of the standard solid-phase peptide synthesis. The Hyp residue following the NBGly was conjugated using 9 molar equiv of Fmoc-Hyp(tBu)-OH, 8.8 molar equiv of PyBroP, and 20 molar equiv of DIPEA for over 24 hr to overcome the low reactivity caused by the steric hindrance of the NB cage group. The remaining sequence including the GGG spacer was completed by HBTU chemistry, followed by on-resin labeling with 6 molar equivalent of CF or TAMRA activated by 6 molar equivalent of PyAOP for over 24 hr. The full length fluorescent CMPs were cleaved from resin by treating the resin with TFA/TIS/H2O (95:2.5:2.5) for 3 hr and the cleaved peptide was purified by reverse phase HPLC on a Vydac C18 column using a linear gradient mixture of water (0.1% TFA) and acetonitrile (0.1% TFA) (5-45% acetonitrile gradient in 40 min). The purified peptides were analyzed by MALDI-TOF MS (FIG. 27): m/z calculated 2975.1 [M+Na+] for CF(GPO)9 (SEQ ID NO: 10), found 2975.0 [M+Na+]; m/z calculated 2975.1 [M+Na+] for ^SG9P9O9 (SEQ ID NO: 5), found 2973.5 [M+Na+]; m/z calculated 3110.2 [M+Na+] for CF^NB(GPO)9 (SEQ ID NO: 4), found 3109.4 [M+Na+]; m/z calculated 2975.1 [M+Na+] for CF(GPO)9 (SEQ ID NO: 10) [CF^NB(GPO)9 (SEQ ID NO: 4) after UV decaging], found 2974.1 [M+Na+]; m/z calculated 3142.3 [M+H+] for TAMRA-NB(GPO)9 (SEQ ID NO: 12), found 3141.4 [M+H+]; m/z calculated 3007.2 [M+H+] for TAMRA-(GPO)9 (SEQ ID NO: 15), [TAMRA-NB(GPO)9 (SEQ ID NO: 12) after decaging], found 3006.3 [M+H+]. CD spectra and CD melting curves of the labeled CMPs were acquired in PBS solutions using a JASCO 715 CD spectrophotometer. The solutions were incubated for at least 24 hours at 4° C. prior to CD experiment to ensure folding (FIG. 28).

[2] = tested on: type I and type II gelatin; experiment: CMP binding assay on thermally-denatured type I and II collagens (coatings); design: species or system rat (type I), bovine (type II); conditions: UV-exposed, 20 μM, room temperature
Procedure: CMP binding assay on thermally-denatured type I and II collagens. A solid-state protein coating instead of a reconstituted gelatin film (as described above) was chosen as the binding substrate to avoid the collagen type dependent film instability. Wells of nunc black 96-well maxisorp plate (Thermo Scientific) were charged with 50 μL of 1×PBS buffer containing 100 μg/mL type I or type II (bovine, BD Science) collagen which was denatured by 10 minutes of incubation at 75° C. After 1 hour, the coating solutions were removed and wells were washed with 1×PBS buffer containing 1 mg/mL BSA (PBSB), and blocked with 50 mg/mL BSA in PBS for 1 hour, followed by additional wash with PBSB. CF^NB(GPO)9 (SEQ ID NO: 4) or CF^SG9P9O9 (SEQ ID NO: 5) solution (20 μM, 50 μL in PBS) was added to each well, exposed to UV light for 10 min, and incubated at room temperature for 2.5 hours. Wells were washed three times with 100 μL of PBSB followed by fluorescence (ex: 489 nm, em: 533 nm) reading with a SpectraMax M-2 microplate reader (Molecular Devices). Each binding experiment was done in triplicate. The background fluorescence of empty wells was subtracted from the raw fluorescence data.

Tm (CD melting curve, triple helix) ([1]; after UV exposure (photo-decaged), heating rate 60° C./hr, Tm about 10° C. higher than equilibrium Tm)	Substance	triple helical folding capacity (CD melting) ([1]; after UV exposure / photo-cleavage of NB cage)	triple helical folding capacity (CD melting) ([1]; caged, before UV exposure)	binding affinity to gelatin (fluorescence level) [2]	melting temperature (Tm), CD melting curve ([1]; non-caged peptide in PBS, CD at 225 nm, 1° C./min heating rate)	triple helical folding capacity (CD melting) ([1]; sequence-scrambled peptide)
75 °C	CF-GGG-(GPO)4^NBGPO(GPO)4 [CF^NB(GPO)9]	regain its full triple helical folding capacity	completely suppressed the CMP's ability to fold into a triple helix	confirmed for both type I and type II gelatin	–	–
–	CF-GGG-(GPO)9 [CF(GPO)9]	–	–	–	75 °C	–
–	CF-GGG-PGOGPGPOPOGOGOPPGOOPGGOOPPG [CF^SG9P9O9, reference compound]	–	–	negligible affinity to gelatin	–	lack of triple helical structure
